Literature values in patent US20160296627A1, “INTRACAMERAL IMPLANT FOR TREATMENT OF AN OCULAR CONDITION” (Envisia Therapeutics Inc., priority 2013, published 2016).

Molecular target: Cloned Human Ciliary Body FP Prostaglandin Receptor (Homo sapiens, UniProt P43088)
Settings: Sharif et al. 2002, read-out: Functional Potency, EC50

Chain of Cloned Human Ciliary Body FP Prostaglandin Receptor (P43088 whole entry): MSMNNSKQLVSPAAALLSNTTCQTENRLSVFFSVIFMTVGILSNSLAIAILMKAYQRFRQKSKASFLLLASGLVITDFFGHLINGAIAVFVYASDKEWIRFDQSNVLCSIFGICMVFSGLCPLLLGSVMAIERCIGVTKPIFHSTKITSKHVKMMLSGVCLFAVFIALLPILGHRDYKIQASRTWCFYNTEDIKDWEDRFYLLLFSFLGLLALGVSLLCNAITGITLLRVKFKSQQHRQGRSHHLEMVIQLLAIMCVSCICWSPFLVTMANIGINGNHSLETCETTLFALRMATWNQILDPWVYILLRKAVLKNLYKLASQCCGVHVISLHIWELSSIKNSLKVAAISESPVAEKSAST

| EC50 [nM] | Compound |
| --- | --- |
| 694 | CCNC(=O)CCC/C=C\C[C@@H]1[C@@H](/C=C/[C@@H](O)CCc2ccccc2)[C@H](O)C[C@@H]1O [Bimatoprost] |
| 54.6 | O=C(O)CCC/C=C\C[C@@H]1[C@@H](CC[C@@H](O)CCc2ccccc2)[C@H](O)C[C@@H]1O [Latanoprost acid] |
| 126 | CC(C)OC(=O)CCC/C=C\C[C@@H]1[C@@H](CC[C@@H](O)CCc2ccccc2)[C@H](O)C[C@@H]1O [Latanoprost] |
| 3.2 | O=C(O)CCCC=CCC1C(O)CC(O)C1C=CC(O)COc1cccc(C(F)(F)F)c1 (stereo not drawn) [Travoprost acid] |
| 42.3 | CC(C)OC(=O)CCC/C=C\C[C@@H]1[C@@H](/C=C/[C@@H](O)COc2cccc(C(F)(F)F)c2)[C@H](O)C[C@@H]1O [Travoprost, propan-2-yl 7-[3,5-dihydroxy-2-[3-hydroxy-4-[3-(trifluoromethyl)phenoxy]-but-1-enyl]-cyclopentyl]hept-5-enoate] |

| Compound | EC50 [nM] |
| --- | --- |
| O=C(O)CCC/C=C\C[C@@H]1[C@@H](/C=C/[C@@H](O)CCc2ccccc2)[C@H](O)C[C@@H]1O [Bimatoprost acid] | 5.8 |
